Laboratory results taken from patent US20090155209A1, “NOVEL MACROCYCLIC INHIBITORS OF HEPATITIS C VIRUS REPLICATION” (priority 2007, published 2009).

Columns and labels:
NS3-NS4 [1] = biological target: T1, NS3-NS4 (Hepatitis C virus genotype 1a, UniProt P27958); assay: cell-based; settings: EC50, NS3-NS4 activity
NS3-NS4 [2] = biological target: T1, NS3-NS4; assay: NS3-NS4 activity, IC50 (Example 37, Table 8); type: biochemical

T1 sequence (P27958 1027-1657): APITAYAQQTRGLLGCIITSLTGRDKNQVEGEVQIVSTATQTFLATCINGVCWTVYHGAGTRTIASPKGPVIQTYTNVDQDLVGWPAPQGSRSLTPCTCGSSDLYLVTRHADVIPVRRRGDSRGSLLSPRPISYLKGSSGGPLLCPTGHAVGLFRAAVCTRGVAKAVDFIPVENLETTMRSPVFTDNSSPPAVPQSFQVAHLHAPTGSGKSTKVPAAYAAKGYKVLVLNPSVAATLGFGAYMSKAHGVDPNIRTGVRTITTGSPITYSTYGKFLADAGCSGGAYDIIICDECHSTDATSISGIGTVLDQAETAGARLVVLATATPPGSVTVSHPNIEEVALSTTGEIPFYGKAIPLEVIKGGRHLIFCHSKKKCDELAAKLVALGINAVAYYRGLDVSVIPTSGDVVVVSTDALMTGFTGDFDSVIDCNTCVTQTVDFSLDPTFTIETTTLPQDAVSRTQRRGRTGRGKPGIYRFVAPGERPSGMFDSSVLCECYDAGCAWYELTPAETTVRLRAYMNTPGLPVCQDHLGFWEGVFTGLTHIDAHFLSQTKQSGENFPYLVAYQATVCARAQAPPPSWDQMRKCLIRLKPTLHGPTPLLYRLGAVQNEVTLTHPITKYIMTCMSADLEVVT
T1 sequence (P27958 1658-1711): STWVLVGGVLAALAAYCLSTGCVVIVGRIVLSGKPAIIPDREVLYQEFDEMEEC

SMILES	EC50 (NS3-NS4 [1]) [nM]	IC50 (NS3-NS4 [2]) [nM]
C=CCC1(S(=O)(=O)NC(=O)[C@@]23C[C@H]2/C=C\CCCCC[C@H](NC(=O)OC(C)(C)C)C(=O)N2C[C@H](OC(=O)N4Cc5cccc(F)c5C4)C[C@H]2C(=O)N3)CC1 [Compound 543]	< 100	< 100
CC(C)(C)OC(=O)N[C@H]1CCCCC[C@@H]2C[C@@H]2[C@@H]2C[C@@]2(C(=O)NS(=O)(=O)C2(C)CC2)NC(=O)[C@@H]2C[C@@H](OC(=O)N3Cc4cccc(F)c4C3)CN2C1=O [Compound 901]	< 100	< 100
CC(C)(C)OC(=O)N[C@H]1CCCCC/C=C\[C@@H]2C[C@@]2(C(=O)NS(=O)(=O)c2cc3ccccc3o2)NC(=O)[C@@H]2C[C@@H](OC(=O)N3Cc4cccc(F)c4C3)CN2C1=O [Compound 542]	100 to 1000	< 100
CN(C(=O)N[C@H]1CCCCC/C=C\[C@@H]2C[C@@]2(C(=O)NS(=O)(=O)C2CC2)NC(=O)[C@@H]2C[C@@H](OC(=O)N3Cc4cccc(Cl)c4C3)CN2C1=O)C(C)(C)C [Compound 424]	< 100	< 100
Cc1nc(N[C@H]2CCCCC/C=C\[C@@H]3C[C@@]3(C(=O)NS(=O)(=O)C3CC3)NC(=O)[C@@H]3C[C@@H](OC(=O)N4Cc5cccc(F)c5C4)CN3C2=O)sc1C [Compound 231]	< 100	< 100
CC(C)(C)OC(=O)N[C@H]1CCCCC/C=C\[C@@H]2C[C@@]2(C(=O)NOCC2CC2)NC(=O)[C@@H]2C[C@@H](OC(=O)N3Cc4cccc(F)c4C3)CN2C1=O [Compound 102, (2R,6S,13aS,14aR,16aS,Z)-6-(tert-butoxycarbonylamino)-14a-(cyclopropylmethoxycarbamoyl)-5,16-dioxo-1,2,3,5,6,7,8,9,10,11,13a,14,14a,15,16,16a-hexadecahydrocyclopropa[e]pyrrolo[1,2-a][1,4]diazacyclopentadecin-2-yl 4-fluoroisoindoline-2-carboxylate]	< 100	
CCC(C)(C)OC(=O)N[C@H]1CCCCC/C=C\[C@@H]2C[C@@]2(C(=O)NS(=O)(=O)C2CC2)NC(=O)[C@@H]2C[C@@H](OC(=O)N3Cc4cccc(F)c4C3)CN2C1=O [Compound 431]	< 100	
CC(C)(C)OC(=O)N[C@H]1CCCCC/C=C\[C@@H]2C[C@@]2(C(=O)NS(=O)(=O)c2ccc(Cl)s2)NC(=O)[C@@H]2C[C@@H](OC(=O)N3Cc4cccc(F)c4C3)CN2C1=O [Compound 323]	< 100	
CC(C)(C)ONC(=O)[C@@]12C[C@H]1/C=C\CCCCC[C@H](NC(=O)OC(C)(C)C)C(=O)N1C[C@H](OC(=O)N3Cc4cccc(F)c4C3)C[C@H]1C(=O)N2 [Compound 103, (2R,6S,13aS,14aR,16aS,Z)-14a-(tert-butoxycarbamoyl)-6-(tert-butoxycarbonylamino)-5,16-dioxo-1,2,3,5,6,7,8,9,10,11,13a,14,14a,15,16,16a-hexadecahydrocyclopropa[e]pyrrolo[1,2-a][1,4]diazacyclopentadecin-2-yl 4-fluoroisoindoline-2-carboxylate]	< 100	
CCC(C)(C)OC(=O)N[C@H]1CCCCC/C=C\[C@@H]2C[C@@]2(C(=O)NS(=O)(=O)C2CC2)NC(=O)[C@@H]2C[C@@H](OC(=O)N3Cc4cccc(F)c4C3)CN2C1=O [Compound 438]	100 to 1000	
CC(C)(C)OC(=O)N[C@H]1CCCCC/C=C\[C@@H]2C[C@@]2(C(=O)NS(=O)(=O)c2ccc(Cl)nc2Cl)NC(=O)[C@@H]2C[C@@H](OC(=O)N3Cc4cccc(F)c4C3)CN2C1=O [Compound 531]		< 100
CC(C)(C)OC(=O)N[C@H]1CCCCCCC[C@@H]2C[C@@]2(C(=O)NS(=O)(=O)Cc2ccc(Cl)c(Cl)c2)NC(=O)[C@@H]2C[C@@H](OC(=O)N3Cc4cccc(F)c4C3)CN2C1=O [Compound 627]		< 100
CC(C)(C)OC(=O)N[C@H]1CCCCC/C=C\[C@@H]2C[C@@]2(C(=O)NS(=O)(=O)c2ccc(Cl)nc2)NC(=O)[C@@H]2C[C@@H](OC(=O)N3Cc4cccc(F)c4C3)CN2C1=O [Compound 530]		< 100
Cc1cccc(CS(=O)(=O)NC(=O)[C@@]23C[C@H]2CCCCCCC[C@H](NC(=O)OC(C)(C)C)C(=O)N2C[C@H](OC(=O)N4Cc5cccc(F)c5C4)C[C@H]2C(=O)N3)c1 [Compound 614]		< 100
